Test results published in article PMC8318231, “Rate-of-Kill (RoK) assays to triage large compound sets for Chagas disease drug discovery: Application to GSK Chagas Box” (PLoS Neglected Tropical Diseases, 2021).

Key:
[1] = system: T. cruzi intracellular amastigotes in H9c2 cells; assay: Rate-of-Kill (RoK) high-content imaging assay, amastigotes per cell (AM/CELL) and curve descriptors; format: cell-based, Trypanosoma cruzi; design: key to ME_24h / ME_48h / ME_72h: % reduction in parasite burden (cidal response); t50pct_MCC50 / t50pct_Cmax: unit not given here; conditions: for ME_24h: 24h; for ME_48h: 48h; for ME_72h: 72h; for AM/CELL NORM: sheet figure 4 A; for t50%_Cmax / tlag_Cmax / t50pct_Cmax: at Cmax; for ME_24h (%): maximum effect at 24 h; for ME_24h (%) / ME_48h (%) / ME_72h (%): RoK assay; for ME_48h (%): maximum effect at 48 h; for ME_72h (%): maximum effect at 72 h; for ME 24h (maximum effect at 24 hours, intracellular amastigotes): maximum percentage of parasite burden reduction reached by any concentration
In short: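 H9c2 cardiomyocytes infected with T. cruzi trypomastigotes (MOI 8, 18 h), then compounds tested at 5 μM single shot or 11-point 1/3 dilution from 50 μM. DRAQ5-stained nuclei imaged over a time course. Amastigotes per cell normalised to infected cells at 4 h (0%) and non-infected cells (100%).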

[2] = system: T. cruzi Tulahuen trypomastigotes; assay: T. cruzi trypomastigote assay (Cell Titer-Glo viability, ATP luminescence); format: cell-based, Trypanosoma cruzi; conditions: for Trypomastigotes pIC50 48 hours: 48 hours incubation; for Trypomastigotes pIC50 48 hours / Trypomastigotes pIC50 72 hours: pIC50 = -log10 IC50 in molar units; for Trypomastigotes pIC50 72 hours: 72 hours incubation; for 72 pIC50 (trypomastigotes, raw data of Fig 1D): 72 hours, plotted values, censored values given without sign; for 48 pIC50 / 72 pIC50: trypomastigote assay; for 48 pIC50: 48 h; for 72 pIC50: 72 h
In short: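 Tulahuen trypomastigotes from infected LLC-MK2 culture supernatants (days 5–8) plated at 5 × 10^4 per well in DMEM/2% FBS with compound at 5 μM single-shot final or in dose response. Viability by CellTiter-Glo ATP luminescence after 10 min at room temperature, normalised to no-cell (100%) and DMSO (0%) controls.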

Structure (SMILES)	ME_24h ([1]; figure 5)	ME_48h ([1]; figure 5)	ME_72h ([1]; figure 5)	MCCE ([1]; RoK curve descriptor)	AM/CELL NORM ([1]; Time 4)	AM/CELL NORM ([1]; Time 24)	AM/CELL NORM ([1]; Time 48)	AM/CELL NORM ([1]; Time 72)	tlag_Cmax [1]	t50pct_Cmax ([1]; figure 5)	tlag_Cmax ([1]; figure 5)	t50pct_MCC50 ([1]; at MCC50, figure 5)	tlag_MCC50 ([1]; at MCC50, figure 5)	MCCE ([1]; figure 5)	ME_24h (%) [1]	ME_48h (%) [1]	ME_72h (%) [1]	ME 24h (maximum effect at 24 hours, intracellular amastigotes) [1]	Trypomastigotes pIC50 48 hours [2]	Trypomastigotes pIC50 72 hours [2]	other results
N#Cc1cc(N2CCCC2=O)ccc1Sc1ccccc1CO [TCMDC-143604]	-55.9743	36.5881	78.1794	0.6 µM	9.146	-84.052	29.3818	78.3167	24.0 h	72	24	72	24	0.6173	-56.0%	36.6%	78.2%	-55.4036%	< 4.3	< 4.3	MCC50 ([1]; RoK curve descriptor): 1.9 µM; t50%_Cmax [1]: 72.0 h; t50%_MCC50 ([1]; at MCC50): 72.0 h; tlag_MCC50 ([1]; at MCC50): 24.0 h; MCC50 ([1]; figure 5, in µM): 1.852; 72 pIC50 (trypomastigotes, raw data of Fig 1D) [2]: < 4.3; 48 pIC50 ([2]; figure 1A): < 4.3; 72 pIC50 ([2]; figure 1A): < 4.3; 72 pIC50 ([2]; figure 1B): < 4.3
CCCc1nc2nc(N)nc(N)c2cc1CC [TCMDC-143606]	41.1896	50.5934	54.3499	0.2 µM	30.5298	50.9144	56.204	55.305	4.0 h	48	4	48	4	0.2058	41.2%	50.6%	54.4%	50.9144%	5.9	5.8	MCC and MCCE values (in words) [1]: low MCC and MCCE values; ME (maximum effect) in RoK assay (in words) [1]: high ME value; tlag times [1]: 4 h; MCC50 ([1]; RoK curve descriptor): 25.9 µM; t50%_Cmax [1]: 60.0 h; t50%_MCC50 ([1]; at MCC50): 48.0 h; tlag_MCC50 ([1]; at MCC50): 4.0 h; MCC50 ([1]; figure 5, in µM): 25.9259
COc1ccccc1-c1c(C)[nH]c2nc(N)nc(C)c12 [TCMDC-143610]	50.657	69.1206	72.4769	0.3 µM	4.093	33.8882	64.2982	71.534	4.0 h	54	4	48	4	0.3086	44.7%	65.4%	70.3%	71.8108%	6.4	6.5	ME (maximum effect) in RoK assay (in words) [1]: high values in ME at the different times; tlag (in words) [1]: short tlag; MCC50 ([1]; RoK curve descriptor): 2.4 µM; t50%_Cmax [1]: 48.0 h; t50%_MCC50 ([1]; at MCC50): 52.8 h; tlag_MCC50 ([1]; at MCC50): 4.0 h; MCC50 ([1]; figure 5, in µM): 1.543; activity in trypomastigotes assay (in words) ([2]; 48 and 72 hours): active
CCCCNc1nccc(-c2c(-c3ccc(F)cc3)nn3c(N4CCOCC4)cccc23)n1 [TCMDC-143617]	-170.943	-538.575	-488.335	5.6 µM	-16.0226	-225.539	-1143.86	-2417.88	72.0 h	72	72	72	72	5.556	-170.9%	-538.6%	-488.3%	-170.943%	5.1	< 4.3	MCC50 ([1]; figure 5): 50 µM
CN(C)CCOc1ccc(N2CCN(S(=O)(=O)c3ccc(Cl)cc3)CC2)cc1 [TCMDC-143622]	11.982	63.0909	72.2951	1.9 µM	6.264	11.982	63.0909	55.0876	4.0 h	48	4	72	24	1.852	12.0%	63.1%	72.3%	11.982%	< 4.3	< 4.3	MCC50 ([1]; RoK curve descriptor): 1.9 µM; t50%_Cmax [1]: 48.0 h; t50%_MCC50 ([1]; at MCC50): 72.0 h; tlag_MCC50 ([1]; at MCC50): 24.0 h; MCC50 ([1]; figure 5, in µM): 1.852; 72 pIC50 (trypomastigotes, raw data of Fig 1D) [2]: < 4.3; 48 pIC50 ([2]; figure 1A): < 4.3; 72 pIC50 ([2]; figure 1A): < 4.3; 72 pIC50 ([2]; figure 1B): < 4.3
